From patent publication US7071334B2, “6-(2-chloro-6-fluoro-phenyl)-triazolopyrimidines” (priority 2001, dated 2006)

Tests used:
Type in all cases: in vivo
Pyrenophora teres = assay: Comparison Test 2: Control of net blotch on barley; conditions: barley treated with 250 ppm, inoculated next day, assessed after 6 days; untreated 100%
Sphaerotheca fuliginea = assay: Comparison Test 5: Protective control of powdery mildew on cucumber; conditions: cucumber seedlings treated with 16 ppm, inoculated next day, assessed after 8 days; untreated 100%
Experimental: Cucumber seedlings of the variety “Chinesische Schlange” were grown in pots to the 2 leaf stage. The plants were then sprayed to run-off with an aqueous suspension, containing the concentration of active ingredient as described below, prepared from a stock solution containing 10% of the active ingredient, 85% cyclohexanone and 5% emulsifier. The next day the treated plants were inoculated with an aqueous spore suspension of cucumber powdery mildew (Sphaerotheca fuliginea). Then the trial plants were cultivated in a greenhouse at temperatures between 20 and 24° C. and a relative humidity between 60 and 80.%. After 8 days the extent of fungal attack on the leaves was visually assessed as % diseased leaf area.

Alternaria solani = assay: Comparison Test 1: Fungicidal control of early blight on tomatoes; conditions: another trial, tomato plants treated with 16 ppm; untreated 90%
Septoria tritici = assay: Comparison Trial 3: Fungicidal control of leaf blotch on wheat (protective); conditions: wheat seedlings treated with 63 ppm, inoculated following day, assessed after 2 weeks; untreated 90%

COc1nc2ncnn2c(C2CCCCC2)c1-c1c(F)cccc1Cl [C]
infection (% diseased leaf area) (Pyrenophora teres): 100%

N#Cc1nc2ncnn2c(C2CCCCC2)c1-c1c(F)cccc1Cl [D]
infection (% diseased leaf area) (Pyrenophora teres): 100%

Cc1nc2ncnn2c(N2CCC(C)CC2)c1-c1c(F)cccc1Cl [E]
infection (% diseased leaf area) (Sphaerotheca fuliginea): 90%
infection (% diseased leaf area) (Alternaria solani): 30%

CCN(CC)c1c(-c2c(F)cccc2Cl)c(C#N)nc2ncnn12 [I-5]
infection (% diseased leaf area) (Septoria tritici): no infection
